Drawing on patent publication US20070219212A1, “Pyranouidole Derivatives and the Use Thereof for the Treatment of Hepatitis C Virus Infection or Disease” (priority 2004, published 2007), this text covers IC50 for 30 compounds.

In assay [1] the target is BB7 RNA-dependent RNA polymerase hepatitis C virus protein (Con1 HCV sequence) (Hepatitis C virus genotype 1b, UniProt Q9WMX2). As to the kind of experiment: Hepatitis C polymerase (BB7) inhibition. Format: biochemical. The text has this:
For purposes of this invention, the term “BB7” denotes an RNA-dependent RNA polymerase hepatitis C virus protein sequence which is derived from HCV replicon. A discussion of BB7 and related technology can be found in Blight, K. et al. (2000) Science 290:1972-1974. BB7 can be licensed from Apath, LLC (893 North Warson Road, Saint Louis Mo. 63141, USA). BB7 is also referred to as Con1 HCV sequence and discussions of Con1 can be found in the following references: Lohmann, V. et al. (1999) Science 285:110-113; Pietschmann, T. et al. (2001) J. Virol. […]:1252-1264; Lohmann, V. et al. (2001) J. Virol. 75:1437-1449.
(§1) The ability of the compounds of the present invention to inhibit Hepatitis C Polymerase was established by the following experimental procedure:
(§2) • 0.5M Na Phosphate buffer. Per liter, weigh 134 gr Na2HPO4.7H2O, add water to 900 ml. Adjust pH to 7.0 with phosphoric acid. Top off with water to 1 L. • Dilute nucleotides 1:1000 to 10 μM (GTP and CTP) or 1:100 to 100 μM (ATP and UTP) into RNase free water. Procedure: • (1) Compounds 10 μl at […] in 15% dimethylsulfoxide (DMSO) When starting from 100 μg/ml compound stock in 1% DMSO: Dispense 5 μl 30% DMSO per well Dispense 5 μl compound (100 μg/ml) per well. When starting from 50 μg/ml compound stock in 15% DMSO: Add 10 μl compound per well.
(§3) Add 20 μl enzyme mix into each well of the assay plate. Incubate compound and enzyme at room temperature for 15 minutes • (3) Template mix—prepare ahead
(§4) Spin down a tube of RNA (5 μg/tube stored in 75% ethanol and 0.3 M sodium acetate) in a microcentrifuge for 20 minutes at 4° C. One tube is enough for 1-1.5 plates. Remove as much ethanol from the tube as possible by inverting the tube. Be gentle, pellet RNA may not adhere to the tube. Vacuum dry the RNA. Resuspend the RNA by adding 1 ml of DEPC water, close the cap of the tube tightly. To dissolve RNA, incubate RNA solution on ice for ˜60 minutes and gently vortex. Spin briefly to ensure all RNA solution is down to the bottom of the tube before opening cap. Gently transfer RNA solution into a 5 ml or larger tube. Add another 3 ml of DEPC water (total 4 ml of volume).
(§5) Add the following volumes of reagents
(§6) Add 20 μl template mix per reaction (i.e. 20 ng of pOF per reaction or ˜3 nM) • (4) Incubate reaction at room temperature (22-25° C.) for 2 hours. • (5) Stop reaction by adding 50 μl of 170 mM EDTA.
(§7) Final concentration of EDTA is 85 mM. • (6) Prewet filters of Millipore multiscreen assay plate by adding 200 μl of 0.5 M sodium phosphate buffer, pH 7.0 into each well. Let stand at room temperature for 2-3 minutes. • (7) Place the multiscreen filter plate onto a Millipore Manifold and turn on vacuum to allow buffer to flow through. Turn off vacuum. Transfer 80 μl of the reaction product into each well of the filter plate. Let stand for 2-3 minutes. Turn on vacuum to filter reaction product. • (8) Turn off vacuum. Add 200 μl of 0.5 M sodium phosphate buffer, pH 7.0 into each well to wash filter. Turn on vacuum.
(§8) Repeat step (8) three more times. • (9) Remove polypropylene bottom. Spot dry filter at the bottom with paper towel. Air dry filter plate on a bench for 1 hour. Add 40 μl Super Mix scintillant. Seal top of the plate with a tape. Place plate into a Packard carrier or micro-beta carrier. • (10) Count plate using a Packard Topcount or micro-beta counter. Count (for example using Program 10) for ^33P in Top count or ^33P program in micro-beta.
(§9) See, Ferrari et al. 1999. J. Virology 73:1649-1654: “Characterization of soluble Hepatitis C virus RNA-dependent RNA polymerase expressed in E. coli and Takamizawa et al. 1991” and J. Virology 65:1105-1113: “Structure and characterization of the Hepatitis C virus genome isolated from human carriers,” both references are hereby incorporated by reference.

For assay [2], the target named is T1, NS5B from the BK strain (genotype 1b) (Hepatitis C virus genotype 1b, UniProt P26663).
T1 construct: NS5B from the BK strain (genotype 1b) is expressed in E coli as a protein in which the 21 C-terminal amino acids are replaced; made in house; host or cells: E. coli
As to the kind of experiment: Hepatitis C polymerase (NS5B, BK strain) inhibition, radioactive filter assay. Type of assay: biochemical. The conditions noted are these: NS5B BK strain (genotype 1b).
Text: as §1
NS5B from the BK strain (genotype 1b) is expressed in E coli as a protein in which the 21 C-terminal amino acids are replaced with a short linker and a hexahistidine tag ([…]). The purified protein is mixed with radioactive nucleotides and allowed to replicate a heteropolymeric RNA substrate, primed by an endogenous short hairpin, resulting in an approximately 760 nt product. The radioactive product is captured on a filter and quantitated after removal of the unincorporated nucleotides.
as §2, §3, §4, §5, §6, §7, §8, §9

[3] abbreviates: BB7 (Con1) NS5B, read-out: BB7 IC50.

The structures appear in SMILES notation. Like-named read-outs stand apart in the source and are kept apart here.

T1 sequence (P26663 2420-2989): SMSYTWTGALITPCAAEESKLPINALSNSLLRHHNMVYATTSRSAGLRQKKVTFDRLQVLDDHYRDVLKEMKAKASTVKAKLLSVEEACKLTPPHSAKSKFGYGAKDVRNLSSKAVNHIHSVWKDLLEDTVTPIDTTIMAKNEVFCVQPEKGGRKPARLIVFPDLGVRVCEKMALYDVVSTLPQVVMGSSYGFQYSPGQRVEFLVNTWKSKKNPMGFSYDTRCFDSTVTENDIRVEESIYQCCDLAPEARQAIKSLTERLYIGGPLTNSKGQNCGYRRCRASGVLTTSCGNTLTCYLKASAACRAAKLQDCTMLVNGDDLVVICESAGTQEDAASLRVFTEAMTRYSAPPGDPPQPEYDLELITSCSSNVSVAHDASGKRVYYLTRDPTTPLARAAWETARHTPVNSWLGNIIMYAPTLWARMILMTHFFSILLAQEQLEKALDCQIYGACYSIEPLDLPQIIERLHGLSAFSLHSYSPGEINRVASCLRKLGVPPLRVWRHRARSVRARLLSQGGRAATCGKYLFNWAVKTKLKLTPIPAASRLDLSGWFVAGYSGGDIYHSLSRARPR
Sequence of BB7 RNA-dependent RNA polymerase hepatitis C virus protein (Con1 HCV sequence) (Q9WMX2 2420-3010): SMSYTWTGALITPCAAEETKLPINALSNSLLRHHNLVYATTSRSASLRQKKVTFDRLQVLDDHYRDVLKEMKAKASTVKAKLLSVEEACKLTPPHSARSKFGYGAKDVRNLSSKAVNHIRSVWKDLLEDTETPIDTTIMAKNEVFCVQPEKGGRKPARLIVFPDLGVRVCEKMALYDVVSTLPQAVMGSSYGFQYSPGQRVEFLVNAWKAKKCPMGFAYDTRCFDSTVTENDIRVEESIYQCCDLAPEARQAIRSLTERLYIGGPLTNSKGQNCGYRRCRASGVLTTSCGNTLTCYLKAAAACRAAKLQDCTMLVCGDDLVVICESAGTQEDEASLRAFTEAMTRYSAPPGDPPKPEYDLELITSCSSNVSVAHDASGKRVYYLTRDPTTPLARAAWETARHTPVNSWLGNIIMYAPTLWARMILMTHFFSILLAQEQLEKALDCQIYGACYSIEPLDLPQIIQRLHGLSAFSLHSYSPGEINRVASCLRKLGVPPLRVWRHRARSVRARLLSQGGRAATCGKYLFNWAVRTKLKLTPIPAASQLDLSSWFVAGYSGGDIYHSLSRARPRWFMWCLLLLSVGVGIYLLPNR

For `CCCC1(CC(=O)O)OCCc2c1[nH]c1c(C)c(OCc3nnc(C(C)(C)C)s3)cc(C#N)c21` (stereo not drawn) [Example 87], the IC50 in assay [1] and in assay [2] was < 500 nM throughout.

Consider `CCCC1(CC(=O)O)OCCc2c1[nH]c1c(C)c(COc3cccc(F)c3)cc(C#N)c21` (stereo not drawn) [Example 21, [5-Cyano-7-(3-fluoro-phenoxymethyl)-8-methyl-1-propyl-1,3,4,9-tetrahydro-pyrano[3,4-b]indol-1-yl]-acetic acid], for which the IC50 in assay [1] and in assay [2] was < 500 nM throughout.

With `CCCC1(CC(=O)O)OCCc2c1[nH]c1c(C)c(OCc3cccc(N)n3)cc(C#N)c21` (stereo not drawn) [Example 59], the IC50 in assay [1] and in assay [2] was < 500 nM in each case.

`CCCC1(CC(=O)O)OCCc2c1[nH]c1c(C)c(OCC3CCS(=O)(=O)CC3)cc(C#N)c21` (stereo not drawn) [Example 107]: the half-inhibitory concentration (IC50) in assay [1] and in assay [2] was < 500 nM in each case.

Consider `CCCC1(CC(=O)O)OCCc2c1[nH]c1c(C)c(OCCC3CC3)cc(C#N)c21` (stereo not drawn) [Example 48], for which the IC50 in assay [1] and in assay [2] was < 500 nM each time.

`CCCC1(CC(=O)O)OCCc2c1[nH]c1c(C)c(COC3CCC3)cc(C#N)c21` (stereo not drawn) [Example 6, (5-Cyano-7-cyclobutoxymethyl-8-methyl-1-propyl-1,3,4,9-tetrahydro-pyrano[3,4-b]indol-1-yl)-acetic acid]: the figures for the IC50 in assay [1] and in assay [2] were < 500 nM and 500 to 5000 nM, respectively.

As to `CCCC1(CC(=O)O)OCCc2c1[nH]c1c(C)c(OCc3nnnn3C)cc(C#N)c21` (stereo not drawn) [Example 116], the IC50 in assay [1] and in assay [2] was < 500 nM each time.

Take `CCCC1(C(=O)O)OCCc2c1[nH]c1c(C)c(OCc3cc(C)on3)cc(C#N)c21` (stereo not drawn) [Example 32, 5-Cyano-8-methyl-7-(5-methyl-isoxazol-3-ylmethoxy)-1-propyl-1,3,4,9-tetrahydro-pyrano[3,4,-b]indole-1-carboxylic acid]: the IC50 in assay [1] and in assay [2] was < 500 nM in each case.

`CCCC1(CC(=O)O)OCCc2c1[nH]c1c(C)c(OCc3ccc(N)nc3)cc(C#N)c21` (stereo not drawn) [Example 69]: the IC50 in assay [1] and in assay [2] was < 500 nM throughout.

For `CCC[C@]1(CC(=O)O)OCCc2c1[nH]c1c(C)c(OCCOCC)cc(C#N)c21` [Example 118], the IC50 in assay [1] and in assay [2] was < 500 nM in each case.

Consider `CCCC1(CC(=O)O)OCCc2c1[nH]c1c(C)c(OCCOCCOC)cc(C#N)c21` (stereo not drawn) [Example 115], for which the IC50 in assay [1] (setting [3]) and in assay [2] was < 500 nM each time.

Turning to `CCCC1(CC(=O)O)OCCc2c1[nH]c1c(C)c(O[C@@H]3CCNC3)cc(C#N)c21` (stereo partly drawn) [Example 42], the IC50 (in general, the midpoint of a concentration-inhibition curve) was 500 to 5000 nM in assay [1] and < 500 nM in assay [2].

Consider `CCCC1(CC(=O)O)OCCc2c1[nH]c1c(C)c(OCC3CCOCC3)cc(C#N)c21` (stereo not drawn) [Example 108], for which the IC50 in assay [1] (setting [3]) and in assay [2] was < 500 nM each time.

On to `CCCC1(CC(=O)O)OCCc2c1[nH]c1c(C)c(OCc3ccnc(N)c3)cc(C#N)c21` (stereo not drawn) [Example 54], for which the IC50 in assay [1] and in assay [2] was < 500 nM throughout.

Consider `CCCC1(CC(=O)O)OCCc2c1[nH]c1c(C)c(OC[C@@H](C)OC)cc(C#N)c21` (stereo partly drawn) [Example 141], for which the IC50 in assay [1] and in assay [2] was < 500 nM throughout.

Take `CCCC1(C(=O)O)OCCc2c1[nH]c1c(C)c(OCCOC)cc(C#N)c21` (stereo not drawn) [Example 31, 5-Cyano-7-(2-methoxy-ethoxy)-8-methyl-1-propyl-1,3,4,9-tetrahydro-pyrano[3,4,-b]indole-1-carboxylic acid]: the IC50 in assay [1] and in assay [2] was 500 to 5000 nM each time.

Regarding `CCCC1(CC(=O)O)OCCc2c1[nH]c1c(C)c(O)cc(C#N)c21` (stereo not drawn) [Example 45], the IC50 in assay [1] and in assay [2] was < 500 nM each time.

Regarding `CCCC1(CC(=O)O)OCCc2c1[nH]c1c(C)c(CO[C@@H]3CCOC3)cc(C#N)c21` (mixture of isomers) [Example 14, (3′R,1S*)[5-Cyano-8-methyl-1-propyl-7-(tetrahydro-furan-3-yloxymethyl)-1,3,4,9-tetrahydro-pyrano[3,4-b]indol-1-yl]-acetic acid], the IC50 in assay [1] and in assay [2] was 500 to 5000 nM throughout.

Regarding `CCCC1(CC(=O)O)OCCc2c1[nH]c1c(C)c(OCc3ccnc(C)c3)cc(C#N)c21` (stereo not drawn) [Example 52], the IC50 in assay [1] and in assay [2] was < 500 nM in each case.

Regarding `CCC[C@]1(CC(=O)O)OCCc2c1[nH]c1c(C)c(OCc3nsc(N(C)C)n3)cc(C#N)c21` [Example 30, (R)-[5-Cyano-7-(5-dimethylamino-[1,2,4]thiadiazol-3-ylmethoxy)-8-methyl-1-propyl-1,3,4,9-tetrahydro-pyrano[3,4-b]indol-1-yl]-acetic acid], the 50% inhibitory concentration (IC50) in assay [1] and in assay [2] was < 500 nM in each case.

In the case of `CCCC1(CC(=O)O)OCCc2c1[nH]c1c(C)c(OCc3ccnc(C(C)(C)O)c3)cc(C#N)c21` (stereo not drawn) [Example 91], the IC50 in assay [1] and in assay [2] was < 500 nM in each case.

Regarding `CCOCCOc1cc(C#N)c2c3c([nH]c2c1C)C(CC(=O)O)([C@@H](C)CC)OCC3` (mixture of isomers) [Example 33, (1R*,10S)-[1-sec-Butyl-5-cyano-7-(2-ethoxy-ethoxy)-8-methyl-1,3,4,9-tetrahydro-pyrano[3,4-b]indol-1-yl]-acetic acid], the IC50 in assay [1] and in assay [2] was < 500 nM throughout.

With `CCCC1(CC(=O)O)OCCc2c1[nH]c1c(C)c(OCc3cccnc3)cc(C#N)c21` (stereo not drawn) [Example 41], the IC50 in assay [1] and in assay [2] was < 500 nM each time.

Consider `CCCC1(CC(=O)O)OCCc2c1[nH]c1c(C)c(OCc3cc(Br)no3)cc(C#N)c21` (stereo not drawn) [Example 81], for which the 50% inhibitory concentration (IC50) in assay [1] and in assay [2] was < 500 nM in each case.

`CCCC1(CC(=O)O)OCCc2c1[nH]c1c(C)c(OCCOCc3ccccc3)cc(C#N)c21` (stereo not drawn) [Example 117]: the concentration for half-maximal inhibition (IC50) in assay [1] and in assay [2] was < 500 nM each time.

`CCCC1(CC(=O)O)OCCc2c1[nH]c1c(C)c(OCc3ccn(C)n3)cc(C#N)c21` (stereo not drawn) [Example 82]: the IC50 in assay [1] and in assay [2] was < 500 nM throughout.

Take `CCCC1(CC(=O)O)OCCc2c1[nH]c1c(C)c(OCc3nccn3C)cc(C#N)c21` (stereo not drawn) [Example 110]: the IC50 in assay [1] and in assay [2] was < 500 nM in each case.

Take `CCCC1(CC(=O)O)OCCc2c1[nH]c1c(C)c(OCc3cc(C4CC4)n(C)n3)cc(C#N)c21` (stereo not drawn) [Example 130]: the concentration for half-maximal inhibition (IC50) in assay [1] and in assay [2] was < 500 nM each time.

On to `CCCC1(CC(=O)O)OCCc2c1[nH]c1c(C)c(OCc3nn(C)cc3Cl)cc(C#N)c21` (stereo not drawn) [Example 75], for which the half-maximal inhibitory concentration (IC50) in assay [1] and in assay [2] was < 500 nM throughout.

`CCCC1(CC(=O)O)OCCc2c1[nH]c1c(C)c(OCc3ccc(C(F)(F)F)nc3)cc(C#N)c21` (stereo not drawn) [Example 73]: the concentration for half-maximal inhibition (IC50) in assay [1] and in assay [2] was < 500 nM each time.
